Entries after “also recorded” stand apart in the source; their conditions may differ. Where two headings read alike, the source gives them in different places. Ends that are not written are not given here.

The subject of data set [1] is Mac-1-HEK293 cells. The data set is classed as cell-based, human.
The subject of data set [2] is αMI-domain. To be noted: surface plasmon resonance and biolayer interferometry; cited from earlier work.
In data set [3] the test system is U937, IC-21 and erythrocytes. Description: Binding density of 125I-LL-37-GY on mammalian cells. To be noted: 5 μg/ml 125I-LL-37-GY; U937, IC-21 and erythrocytes vs tested bacteria.
A short description of data set [4]: Binding of 125I-LL-37-GY to latex beads. To be noted: 10 μg/ml 125I-labeled LL-37-GY; preliminary experiments.
Data set [5] concerns IC-21 macrophages. Description: Adhesion of IC-21 macrophages to immobilized peptide. The class given is cell-based, murine. To be noted: in words; Fig. 4A shown for K18-37.
The test system of a further data set is leukocytes. To be noted: soluble LL-37; cited from earlier work.
In another data set the test system is mammalian cells. To be noted: LL-37 10 μg/ml; data not shown.
The test system of a further data set is neutrophils. To be noted: cited from earlier work.
The test system of the next data set is bacteria. To be noted: bacterial killing in physiologically relevant buffers; cited from earlier work.
Another data set concerns wild-type macrophages. Description: Phagocytosis of latex beads by wild-type peritoneal macrophages. The class given is cell-based, mouse.
Data set [6] concerns peritoneal mouse macrophages. To be noted: LL-37 10 μg/ml, 1 μm beads, beads:cells 10:1, 30 min at 37 °C.
Data set [7] deals with Human neutrophils. To be noted: cited from earlier work.
Data set [8] relates to wild-type HEK293 cells. In words: Spreading of wild-type HEK293 cells on LL-37. The data set is classed as cell-based, human. To be noted: 30 min at 37 °C.
The next data set concerns Salmonella. Description: Binding density of 125I-LL-37-GY on Salmonella. To be noted: 5 μg/ml 125I-LL-37-GY, 20 min at 22 °C.
The test system of a further data set is rodents. To be noted: LL-37 injection; cited from earlier work.
In data set [9] the test system is IC-21 macrophages. To be noted: LL-37 10 μg/ml, 1 μm beads, beads:cells 10:1, 30 min at 37 °C.
The next data set deals with murine macrophages. To be noted: opsonization with LL-37; cited from earlier work.
In data set [10] the test system is adherent IC-21 macrophages. To be noted: LL-37 5 μg/ml, E. coli, 60 min at 37 °C.
Another data set concerns U937 cells. Description: Adhesion of U937 monocytic cells to immobilized LL-37. The class given is cell-based, human. To be noted: data not shown.
Data set [11] relates to adherent murine peritoneal macrophages. Description: Phagocytosis of E. coli and S. aureus by adherent murine peritoneal macrophages. The data set is classed as cell-based. To be noted: LL-37 5 μg/ml, 60 min at 37 °C.
Data set [12] relates to Mac-1-HEK293 cells. In words: Adhesion of Mac-1-HEK293 cells to immobilized peptide. The data set is classed as cell-based, human.
For data set [13], the system named is Mac-1-HEK293 cells. Description: Spreading of Mac-1-HEK293 cells on LL-37. The class given is cell-based, human. To be noted: slides coated with LL-37, 30 min at 37 °C.
For data set [14], the system named is Human neutrophils. To be noted: cited from earlier work. This is another data set of the same source.
For another data set, the system named is monocyte and macrophages. To be noted: cited from earlier work.
For data set [15], the system named is adherent IC-21 macrophages. To be noted: LL-37 5 μg/ml, S. aureus, 60 min at 37 °C.
A further data set has as its system primary human monocytes. To be noted: compared to uncoated beads; cited from earlier work.
Data set [16] has as its system wild-type HEK293 cells. In words: Adhesion of wild-type HEK293 cells to immobilized LL-37. The data set is classed as cell-based, human.
Data set [17] relates to Mac-1-deficient macrophages. Description: Phagocytosis of latex beads by Mac-1-deficient peritoneal macrophages. To be noted: LL-37-coated beads, 30 min at 37 °C. The data set is classed as cell-based, mouse.
In data set [18] the test system is αMI-domain. To be noted: cited from earlier work.
The test system of another data set is human THP-1 cells. To be noted: LL-37 10 μg/ml, 1 μm beads, beads:cells 10:1, 30 min at 37 °C.
Data set [19] has as its system macrophages. To be noted: pretreatment of macrophages with LL-37; cited from earlier work.
Data set [20] deals with human peripheral blood monocytes, neutrophils and T cells. To be noted: cited from earlier work.
In data set [21] the test system is macrophages. Description: Phagocytosis of bacteria by macrophages. The data set is classed as cell-based.
A further data set has as its system Mac-1. To be noted: cited from earlier work.
Data set [22] deals with wild-type HEK293 cells. Description: Inhibition of wild-type HEK293 cell adhesion to immobilized LL-37. The class given is cell-based, human. To be noted: heparin 20 μg/ml, all coating concentrations of LL-37.
Data set [23] concerns IC-21 macrophages. In words: Inhibition of IC-21 macrophage adhesion to immobilized K18-37. The data set is classed as cell-based, murine. To be noted: K18-37 coating 0.5 μg/ml; heparin 20 μg/ml; mean ± S.E. from 5-6 experiments.
For data set [24], the system named is Mac-1-HEK293 cells. Description: Inhibition of Mac-1-HEK293 cell adhesion to immobilized LL-37. The data set is classed as cell-based, human.

Turning to DIDPKLKWD [reference compound], in the data set on Mac-1-HEK293 cells [1] (control peptide, fibrinogen coated at 2.5 μg/ml, 15 min at 22 °C), the “inhibition of cell adhesion to fibrinogen” value is “inactive”.
On to “FKRIVQRIKDFLR [FK-13, reference compound]”, for which, in the data set with αMI-domain [2], the “interaction with αMI-domain” value is reported as “no interaction”.
For the molecule KRIVQRIKDFLRNLVPRTES [K18-37], the “IC50 for inhibition of cell adhesion to fibrinogen” value in the data set with Mac-1-HEK293 cells [1] (3 h) stood at 6 µg/mL.
As to “LL-37-GY: LL-37 containing two additional C-terminal residues Gly-Tyr (LLGDFFRKSKEKIGKEFKRIVQRIKDFLRNLVPRTESGY; also: 125I label, place not given here)”, the “binding compared with bacteria” value in data set [3] is given as “bound significantly less”. Further, the “binding density on beads” value in data set [4] is on record as 10.6±1.3 fg/μm^2.
As to “LLGDFFRKSKEKIGKEFKRIVQRIKDFLRNLVPRTES [LL-37]”, the “adhesion of IC-21 macrophages” value in the data set with IC-21 macrophages [5] is on record as “strongly adhered”. The “concentration affecting membrane integrity of leukocytes” value with leukocytes is above 50 µg/mL. For the same molecule, in the data set on mammalian cells, the “calcein leakage relative to background of control untreated cells” value is ~ 3 fold. Moreover, in the data set with neutrophils, the neutrophil activation entry is “activates Mac-1 on the surface of neutrophils”. Further, the minimal inhibitory concentration in the data set with bacteria is 30 to 100 µg/mL. Besides, the “enhancement of bead uptake” value is recorded as ~ 5 times in the data set on wild-type macrophages (LL-37-coated beads, 30 min at 37 °C, three experiments in triplicate); “several fold higher than that of untreated beads” in the data set on wild-type macrophages (LL-37-coated vs untreated beads, abstract); “failed to augment phagocytosis of beads” in data set [17]. The results for the “fold augmentation of bead uptake” value (in data set [6]; in the data set with IC-21 macrophages [9]; in the data set with human THP-1 cells) were around 4.5 fold, ~ 3.5 fold and around 6 fold, respectively. Besides, in the data set with Human neutrophils [7], the “production of reactive oxygen species” value is “increase the production of reactive oxygen species”. The results for the cell spreading entry with wild-type HEK293 cells [8] (LL-37 coating 2 μg/ml), in the data set on wild-type HEK293 cells [8] (LL-37 coating 0.2-1.0 μg/ml) and with Mac-1-HEK293 cells [13] were “spread at higher LL-37 concentrations”, “remained round” and “spread in a concentration-dependent manner with the formation of stress fibers”, respectively. Further, the “binding relative to E. coli (fold less)” value in the data set on Salmonella is 1.8 fold. Besides, the “binding to Salmonella relative to mammalian cells (fold higher)” value in the data set with Salmonella is reported as ~ 17 fold. Moreover, the “protection from septic death” value in the data set on rodents is on record as “protects rodents from septic death”. For the same molecule, the phagocytosis entry with murine macrophages is given as “increased phagocytosis by murine macrophages”; in data set [11] it was “increased phagocytosis”. Moreover, the figures for the “fold increase of phagocytosis” value in data set [10] and in data set [15] were ~ 17 fold and around 10 fold, respectively. The “adhesion of U937 cells” value with U937 cells is reported as “adhered to LL-37 in a concentration-dependent manner”. Moreover, in the data set with Mac-1-HEK293 cells [12] (LL-37 coating 2 μg/ml, 30 min at 37 °C, calcein fluorescence, n=6), the “adhesion (percent of added cells)” value is given as 52 ± 5%. The “coating concentration for saturable adhesion” value in the data set on Mac-1-HEK293 cells [12] (Mac-1-HEK293, 30 min at 37 °C) was 2 µg/mL. The “adhesion supported by peptide” value in the data set with Mac-1-HEK293 cells [12] (in words) is reported as “supported strong adhesion; also recorded: supported efficient adhesion”. In addition, the apoptosis entry in the data set with Human neutrophils [14] is given as “delayed apoptosis”. In the data set on monocyte and macrophages, the induction of migration entry is “induces a potent migratory response of Mac-1-expressing monocytes and macrophages; also recorded: induced Mac-1-dependent migration of monocyte and macrophages”. In the data set with αMI-domain [2], the “interaction with αMI-domain” value is recorded as “The interaction of the αMI-domain with LL-37 also was recently reported”. Further, in the data set with primary human monocytes, the “uptake of LL-37-coated beads” value is on record as “increased compared to uncoated beads”. The “adhesion of wild-type HEK293 cells” value is listed as “no adhesion” in the data set on wild-type HEK293 cells [16] (LL-37 coating 0-1.0 μg/ml) and “supported adhesion of wild-type HEK293 cells; however, maximal adhesion did not reach the level attained with Mac-1-HEK293 cells” with wild-type HEK293 cells [16] (LL-37 coating 1-4 μg/ml). Further, in the data set with αMI-domain [18], the αMI-domain binding entry is “binds the αMI-domain”. For the same molecule, in the data set with macrophages [19], the bacterial phagocytosis result is given as “augmented by pretreatment of macrophages”. Further, in [20], the chemotactic effect result is on record as “chemotactic effect”. Further, in the data set with macrophages [21] (Gram-negative and Gram-positive bacteria coated with LL-37, abstract), the “phagocytosis of bacteria” value was “significantly potentiated their phagocytosis”. Further, the “concentration found to enhance bacterial phagocytosis” value with macrophages [21] (summary in discussion) lay in the range of 1 to 5 µg/mL.
As to dynorphin A, the phagocytosis entry in the data set with Mac-1 was “enhance phagocytosis”; in the data set on Mac-1 (opsonization, through Mac-1), “opsonizes bacteria and promotes phagocytosis through Mac-1”.
Consider heparin, for which the “inhibition of adhesion of wild-type HEK293 cells” value in the data set on wild-type HEK293 cells [22] is reported as “strong inhibitor of adhesion”. Further, the “inhibition of adhesion to K18-37” value with IC-21 macrophages [23] is listed as 25 ± 13%.

B1: NIF: neutrophil inhibitory factor, a specific inhibitor of the αMI-domain-ligand interactions (protein)
chain: NEHNLRCPQNGTEMPGFNDSIRLQFLAMHNGYRSKLALGHISITEESESDDDDDFGFLPDFAPRASKMRYLEYDCEAEKSAYMSARNCSDSSSPPEGYDENKYIFENSNNISEAALKAMISWAKEAFNLNKTKEGEGVLYRSNHDISNFANLAWDAREKFGCAVVNCPLGEIDDETNHDGETYATTIHVVCHYPKINKTEGQPIYKVGTPCDDCSEYTKKADNTTSADPVCIPDDGVCFIGSKADYDSKEFYRFREL
On to B1, for which the “inhibition of adhesion” value in the data set with Mac-1-HEK293 cells [24] (LL-37 coating high (2 μg/ml or ≥2 μg/ml), inhibitor preincubated 15 min at 22 °C) is recorded as “but not high (≥2 μg/ml) concentrations”. In addition, the “inhibition of cell adhesion to LL-37 (summary, words)” value with Mac-1-HEK293 cells [24] (abstract, various Mac-1-expressing cells) is “partially inhibited”.

The record behind these values is paper PMC5157691 (Research and reports in biochemistry, 2016).
